Measurements from the supplement of paper PMC11061612.

Columns and labels:
Carboplatin = compound: C1CC(C1)(C(=O)[O-])C(=O)[O-].N.N.[Pt+2] [Carboplatin]; details: max 10 µM
Method in brief: (§1)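 Viability was measured with CellTiter-Glo 2.0 luminescence after 72 hours of dosing at a final DMSO of typically 0.2%, and scaled between blank-well and DMSO-well means. Beforehand, cancer cell lines sat 24 hours at 37°C and 5% CO2 in 1536-well plates in 7.5 μl DMEM/F12 or RPMI with 10% FBS. A non-linear mixed effects model fitted two-parameter logistic curves to the dose responses. The single-agent IC50 comes from these fits.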

AZD5363 = compound: C1CN(CCC1(C(=O)N[C@@H](CCO)C2=CC=C(C=C2)Cl)N)C3=NC=NC4=C3C=CN4 [AZD5363]; details: max 10 µM
Method in brief: as §1

AZD1775 = compound: C=CCn1c(=O)c2cnc(Nc3ccc(N4CCN(C)CC4)cc3)nc2n1-c1cccc(C(C)(C)O)n1 [AZD1775]; details: max 3 µM
Method in brief: as §1

Trametinib = compound: CC(=O)Nc1cccc(-n2c(=O)n(C3CC3)c(=O)c3c(Nc4ccc(I)cc4F)n(C)c(=O)c(C)c32)c1 [Trametinib]; details: max 1 µM
Method in brief: as §1

Paclitaxel = compound: CC(=O)O[C@H]1C(=O)[C@@]2(C)[C@H]([C@H](OC(=O)c3ccccc3)[C@]3(O)C[C@H](OC(=O)[C@H](O)[C@@H](NC(=O)c4ccccc4)c4ccccc4)C(C)=C1C3(C)C)[C@]1(OC(C)=O)CO[C@@H]1C[C@@H]2O [Paclitaxel]; details: max 3 µM
Method in brief: as §1

Palbociclib = compound: CC(=O)c1c(C)c2cnc(Nc3ccc(N4CCNCC4)cn3)nc2n(C2CCCC2)c1=O [Palbociclib]; details: max 10 µM
Method in brief: as §1

AZD1390 = compound: CC(C)n1c(=O)n(C)c2cnc3cc(F)c(-c4ccc(OCCCN5CCCCC5)nc4)cc3c21 [AZD1390]; details: max 0.3 µM
Method in brief: as §1

Venetoclax = compound: CC1(C)CCC(CN2CCN(c3ccc(C(=O)NS(=O)(=O)c4ccc(NCC5CCOCC5)c([N+](=O)[O-])c4)c(Oc4cnc5[nH]ccc5c4)c3)CC2)=C(c2ccc(Cl)cc2)C1 [Venetoclax]; details: max 1 µM
Method in brief: as §1

Dasatinib = compound: CC1=C(C(=CC=C1)Cl)NC(=O)C2=CN=C(S2)NC3=CC(=NC(=N3)C)N4CCN(CC4)CCO [Dasatinib]; details: max 2 µM
Method in brief: as §1

SG3199 = compound: CC1=CN2[C@@H](C1)C=NC3=CC(=C(C=C3C2=O)OC)OCCCCCOC4=C(C=C5C(=C4)N=C[C@@H]6CC(=CN6C5=O)C)OC [SG3199]; details: max 0.001 µM
Method in brief: as §1

AZD2811 = compound: CCN(CCO)CCCOc1ccc2c(Nc3cc(CC(=O)Nc4cccc(F)c4)[nH]n3)ncnc2c1 [AZD2811]; details: max 1 µM
Method in brief: as §1

SN-38 = compound: CCc1c2c(nc3ccc(O)cc13)-c1cc3c(c(=O)n1C2)COC(=O)[C@]3(O)CC [SN-38]; details: max 0.3 µM
Method in brief: as §1

AZD0156 = compound: CN(C)CCCOc1ccc(-c2ccc3ncc4c(c3c2)n(C2CCOCC2)c(=O)n4C)cn1 [AZD0156]; details: max 3 µM
Method in brief: as §1

AZD4320 = compound: CN(CC[C@H](CSC1=CC=CC=C1)NC2=C(C=C(C=C2)S(=O)(=O)NC(=O)C3=CC=C(C=C3)N4CCC(CC4)[C@H](C5=CC=CC=C5C6=CC=C(C=C6)Cl)O)S(=O)(=O)C(F)(F)F)CCO [AZD4320]; details: max 1 µM
Method in brief: as §1

Alisertib = compound: COc1cc(Nc2ncc3c(n2)-c2ccc(Cl)cc2C(c2c(F)cccc2OC)=NC3)ccc1C(=O)O [Alisertib]; details: max 10 µM
Method in brief: as §1

Etoposide = compound: COc1cc([C@@H]2c3cc4c(cc3[C@@H](O[C@@H]3O[C@@H]5CO[C@@H](C)O[C@H]5[C@H](O)[C@H]3O)[C@H]3COC(=O)[C@H]23)OCO4)cc(OC)c1O [Etoposide]; details: max 10 µM
Method in brief: as §1

Gefitinib = compound: COc1cc2ncnc(Nc3ccc(F)c(Cl)c3)c2cc1OCCCN1CCOCC1 [Gefitinib]; details: max 10 µM
Method in brief: as §1

Prexasertib = compound: COc1cccc(OCCCN)c1-c1cc(Nc2cnc(C#N)cn2)n[nH]1 [Prexasertib]; details: max 1 µM
Method in brief: as §1

Doxorubicin = compound: COc1cccc2c1C(=O)c1c(O)c3c(c(O)c1C2=O)C[C@@](O)(C(=O)CO)C[C@@H]3O[C@H]1C[C@H](N)[C@H](O)[C@H](C)O1 [Doxorubicin]; details: max 1 µM
Method in brief: as §1

AZD5153 = compound: COc1nnc2ccc(N3CCC(c4ccc(OCCN5CCN(C)C(=O)[C@H]5C)cc4)CC3)nn12 [AZD5153]; details: max 1 µM
Method in brief: as §1

Lapatinib = compound: CS(=O)(=O)CCNCc1ccc(-c2ccc3ncnc(Nc4ccc(OCc5cccc(F)c5)c(Cl)c4)c3c2)o1 [Lapatinib]; details: max 10 µM
Method in brief: as §1

AZD8186 = compound: C[C@@H](Nc1cc(F)cc(F)c1)c1cc(C(=O)N(C)C)cc2c(=O)cc(N3CCOCC3)oc12 [AZD8186]; details: max 10 µM
Method in brief: as §1

Crizotinib = compound: C[C@@H](Oc1cc(-c2cnn(C3CCNCC3)c2)cnc1N)c1c(Cl)ccc(F)c1Cl [Crizotinib]; details: max 10 µM
Method in brief: as §1

Savolitinib = compound: C[C@@H](c1ccc2nccn2c1)n1nnc2ncc(-c3cnn(C)c3)nc21 [Savolitinib]; details: max 1 µM
Method in brief: as §1

AZD6738 = compound: C[C@@H]1COCCN1C2=NC(=NC(=C2)C3(CC3)[S@](=N)(=O)C)C4=C5C=CNC5=NC=C4 [AZD6738]; details: max 10 µM
Method in brief: as §1

AZD5991 = compound: Cc1c2c(nn1C)CSCc1cc(n(C)n1)CSc1cc(c3ccccc3c1)OCCCc1c(C(=O)O)n(C)c3c-2c(Cl)ccc13 [AZD5991]; details: max 1 µM
Method in brief: as §1

AZD7648 = compound: Cc1cc2ncnn2cc1Nc1ncc2c(n1)n(C1CCOCC1)c(=O)n2C [AZD7648]; details: max 10 µM
Method in brief: as §1

Taselisib = compound: Cc1nc(-c2cn3c(n2)-c2ccc(-c4cnn(C(C)(C)C(N)=O)c4)cc2OCC3)n(C(C)C)n1 [Taselisib]; details: max 10 µM
Method in brief: as §1

Selumetinib = compound: Cn1cnc2c(F)c(Nc3ccc(Br)cc3Cl)c(C(=O)NOCCO)cc21 [Selumetinib]; details: max 10 µM
Method in brief: as §1

SRA737 = compound: N#Cc1cnc(Nc2cc(NC[C@H]3CNCCO3)c(C(F)(F)F)cn2)cn1 [SRA737]; details: max 10 µM
Method in brief: as §1

MK-2206 = compound: NC1(c2ccc(-c3nc4ccn5c(=O)[nH]nc5c4cc3-c3ccccc3)cc2)CCC1 [MK-2206]; details: max 10 µM
Method in brief: as §1

Gemcitabine = compound: Nc1ccn([C@@H]2O[C@H](CO)[C@@H](O)C2(F)F)c(=O)n1 [Gemcitabine]; details: max 0.3 µM
Method in brief: as §1

[1] = compound: O=C(Nc1ccc2[nH]nc(-c3ccncc3)c2c1)[C@@H]1CCN(CC(=O)N2CCN(c3ccc(-c4ncccn4)cc3)CC2)C1; details: max 5 µM
Method in brief: as §1

Olaparib = compound: O=C(c1cc(Cc2n[nH]c(=O)c3ccccc23)ccc1F)N1CCN(C(=O)C2CC2)CC1 [Olaparib]; details: max 10 µM
Method in brief: as §1

5-Fluorouracil = compound: O=c1[nH]cc(F)c(=O)[nH]1 [5-Fluorouracil]; details: max 20 µM
Method in brief: as §1

| Cell Line | IC50, cell viability 72 h (Carboplatin) | IC50, cell viability 72 h (AZD5363) | IC50, cell viability 72 h (AZD1775) | IC50, cell viability 72 h (Trametinib) | IC50, cell viability 72 h (Paclitaxel) | IC50, cell viability 72 h (Palbociclib) | IC50, cell viability 72 h (AZD1390) | IC50, cell viability 72 h (Venetoclax) | IC50, cell viability 72 h (Dasatinib) | IC50, cell viability 72 h (SG3199) | IC50, cell viability 72 h (AZD2811) | IC50, cell viability 72 h (SN-38) | IC50, cell viability 72 h (AZD0156) | IC50, cell viability 72 h (AZD4320) | IC50, cell viability 72 h (Alisertib) | IC50, cell viability 72 h (Etoposide) | IC50, cell viability 72 h (Gefitinib) | IC50, cell viability 72 h (Prexasertib) | IC50, cell viability 72 h (Doxorubicin) | IC50, cell viability 72 h (AZD5153) | IC50, cell viability 72 h (Lapatinib) | IC50, cell viability 72 h (AZD8186) | IC50, cell viability 72 h (Crizotinib) | IC50, cell viability 72 h (Savolitinib) | IC50, cell viability 72 h (AZD6738) | IC50, cell viability 72 h (AZD5991) | IC50, cell viability 72 h (AZD7648) | IC50, cell viability 72 h (Taselisib) | IC50, cell viability 72 h (Selumetinib) | IC50, cell viability 72 h (SRA737) | IC50, cell viability 72 h (MK-2206) | IC50, cell viability 72 h (Gemcitabine) | IC50, cell viability 72 h [1] | IC50, cell viability 72 h (Olaparib) | IC50, cell viability 72 h (5-Fluorouracil) |
| --- | --- | --- | --- | --- | --- | --- | --- | --- | --- | --- | --- | --- | --- | --- | --- | --- | --- | --- | --- | --- | --- | --- | --- | --- | --- | --- | --- | --- | --- | --- | --- | --- | --- | --- | --- |
| DoTc2-4510 (Cervical Carcinoma) | > 10000 nM | > 10000 nM | 2900 nM | > 1000 nM | 456 nM | > 10000 nM | > 300 nM | > 1000 nM | > 2000 nM | > 1 nM | > 1000 nM | 9.33 nM | > 3000 nM | > 1000 nM | > 10000 nM | > 10000 nM | > 10000 nM | 59.5 nM | 518 nM | > 1000 nM | > 10000 nM | > 10000 nM | > 10000 nM | > 1000 nM | > 10000 nM | > 1000 nM | > 10000 nM | 4860 nM | > 10000 nM | > 10000 nM | > 10000 nM | > 300 nM | > 5000 nM | > 10000 nM | > 20000 nM |
| HCC-78 (Lung Adenocarcinoma) | > 10000 nM | > 10000 nM | 1380 nM | > 1000 nM | > 3000 nM | > 10000 nM | > 300 nM | > 1000 nM | > 2000 nM | > 1 nM | > 1000 nM | 7.04 nM | > 3000 nM | > 1000 nM | > 10000 nM | 2350 nM | > 10000 nM | 99.6 nM | 493 nM | > 1000 nM | > 10000 nM | > 10000 nM | 9580 nM | > 1000 nM | > 10000 nM | > 1000 nM | > 10000 nM | 5890 nM | > 10000 nM | > 10000 nM | > 10000 nM | 32.7 nM | > 5000 nM | > 10000 nM | > 20000 nM |
| HO-1-N-1 (Oral Cavity Carcinoma) | > 10000 nM | > 10000 nM | 1520 nM | 417 nM | < 3 nM | > 10000 nM | > 300 nM | > 1000 nM | 581 nM | > 1 nM | 409 nM | 4.4 nM | > 3000 nM | > 1000 nM | 68.7 nM | 1260 nM | 8370 nM | 60.1 nM | 84.2 nM | 202 nM | 7300 nM | > 10000 nM | 5580 nM | > 1000 nM | 5590 nM | 788 nM | > 10000 nM | 1960 nM | > 10000 nM | > 10000 nM | > 10000 nM | 6.22 nM | 2260 nM | > 10000 nM | 17600 nM |
| TE-15 (Esophageal Squamous Cell Carcinoma) | > 10000 nM | > 10000 nM | 1840 nM | 693 nM | 9.03 nM | > 10000 nM | > 300 nM | > 1000 nM | 136 nM | > 1 nM | > 1000 nM | 9.74 nM | > 3000 nM | > 1000 nM | > 10000 nM | 4550 nM |  | 40.6 nM | 884 nM | 658 nM | 712 nM | > 10000 nM | > 10000 nM | > 1000 nM | 4290 nM | > 1000 nM | > 10000 nM | 2230 nM | 8210 nM | 4130 nM | > 10000 nM | 25.5 nM | 3950 nM | > 10000 nM | > 20000 nM |
